Assay results: ChEMBL document CHEMBL1201862, “PubChem BioAssay data set” (2004)
The source made the active and inactive calls.

Experiments:
Type in all cases: functional
Coagulation factor XII [1] = target: T1, Coagulation factor XII (Homo sapiens, UniProt P00748); test: Factor XIIa Dose Response Confirmation from Single Well HTS. [Related pubchem assays (depositor defined):AID701]
T1 sequence (P00748 whole entry): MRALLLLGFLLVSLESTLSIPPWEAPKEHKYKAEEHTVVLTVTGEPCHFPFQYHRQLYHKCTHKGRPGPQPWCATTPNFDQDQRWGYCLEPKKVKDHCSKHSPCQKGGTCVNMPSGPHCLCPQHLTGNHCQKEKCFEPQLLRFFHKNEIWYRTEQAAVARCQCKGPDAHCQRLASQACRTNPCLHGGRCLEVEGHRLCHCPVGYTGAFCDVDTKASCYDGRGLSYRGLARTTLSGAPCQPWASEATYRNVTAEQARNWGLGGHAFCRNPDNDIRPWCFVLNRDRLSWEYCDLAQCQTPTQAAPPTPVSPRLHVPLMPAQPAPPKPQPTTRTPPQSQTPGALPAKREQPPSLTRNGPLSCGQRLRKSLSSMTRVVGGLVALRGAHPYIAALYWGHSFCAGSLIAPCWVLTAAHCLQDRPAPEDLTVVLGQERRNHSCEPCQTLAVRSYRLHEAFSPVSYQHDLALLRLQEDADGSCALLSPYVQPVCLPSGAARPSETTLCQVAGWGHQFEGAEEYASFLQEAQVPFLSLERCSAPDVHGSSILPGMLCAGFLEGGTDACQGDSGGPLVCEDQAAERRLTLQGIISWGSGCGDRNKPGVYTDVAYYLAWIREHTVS

Vero [2] = test: Vero E6 cell cytotoxicity, SAR follow-up, cytotoxicity control for West Nile virus antiviral project, synthesized analogs (AID 2244); details: Chlorocebus sabaeus
Vero [3] = test: West Nile virus CPE inhibition, SAR follow-up, cell-based, synthesized analogs (AID 2238); details: Chlorocebus sabaeus
Vero [4] = test: cytotoxicity of synthesized analogs in Vero 76, SAR follow-up, cytotoxicity control for West Nile virus antiviral project, Vero 76 cells (AID 2414); details: Chlorocebus sabaeus
Coagulation factor XII [5] = target: T1, Coagulation factor XII; test: FXIIa inhibitor potency, concentration-response, biochemical (AID 716)
[6] = target: G-protein coupled receptor 55 (Homo sapiens, UniProt Q9Y2T6); test: GPR55 antagonists blocking LPI-driven arrestin recruitment, primary screen, imaging, U2OS, beta-arrestin-GFP, LPI agonist (AID 2013);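 also: antagonist potency measured as reduced agonist-driven arrestin aggregation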
Sequence of G-protein coupled receptor 55 (Q9Y2T6 whole entry): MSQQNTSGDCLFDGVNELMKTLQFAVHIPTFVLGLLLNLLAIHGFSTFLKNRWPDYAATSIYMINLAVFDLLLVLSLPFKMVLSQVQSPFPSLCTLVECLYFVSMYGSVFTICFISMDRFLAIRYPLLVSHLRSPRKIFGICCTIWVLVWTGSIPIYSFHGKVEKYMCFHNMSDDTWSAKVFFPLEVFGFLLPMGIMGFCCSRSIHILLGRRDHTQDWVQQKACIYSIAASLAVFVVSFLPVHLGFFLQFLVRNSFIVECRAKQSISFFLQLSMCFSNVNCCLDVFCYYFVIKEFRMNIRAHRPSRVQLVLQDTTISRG

Cc1ccc(NC(=O)C2(S(=O)(=O)c3ccc(C)cc3)CC2)cc1
IC50 (Coagulation factor XII [1]): > 50 µM (inactive)

O=C(CSc1nc2ccccc2c(=O)n1-c1ccccc1)Nc1ccc2c(c1)CCC2
CC50 (Vero [2]): > 40 µM (active) | IC50 (Vero [3]): 15.5 µM (active) | CC50 (Vero [4]): > 66.6 µM (active)

Cc1c(C(=O)OCCOC(C)C)[nH]c2c1C(=O)CC(C)(C)C2
IC50 (Coagulation factor XII [5]): > 50 µM (inactive)

N#C/C(=C/c1c[nH]nc1-c1cccc(Br)c1)C(=O)O
IC50 [6]: 1.12 µM (active)
